Measurements from the supplement of paper PMC9262897, “Low-cost anti-mycobacterial drug discovery using engineered E. coli” (Nature Communications, 2022).

How the values were obtained:
E. coli TESEC Mtb Alr = experiment: growth (OD600 after 10 h, mean); higher = more growth;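 further: E. coli lacking its native Alr, complemented by codon-optimized Mtb Alr under a feedback-controlled arabinose-inducible plasmid circuit, grown in defined medium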
Experimental: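 TESEC Mtb Alr E. coli grown in a two-dimensional dilution series of drug (µM) and arabinose (12 to 1e8 nM). Growth is read as OD600 after 10 h; values are means of 3 biological replicates.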

[1] = system: E. coli TESEC strain (Mtb target enzyme); experiment: growth (OD600 after 10 h); higher = more growth
Experimental: (§1)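 Chemical-genetic validation profiles: TESEC strains (Mtb Asd or DapB, arabinose-inducible) or the wild-type control grown in a two-dimensional dilution series of drug (µM) and arabinose. Growth is read as OD600 after 10 h in triplicate.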

[2] = system: E. coli wild-type control; experiment: growth (OD600 after 10 h); higher = more growth
Experimental: as §1

CC(C)c1ccc2oc3nc(N)c(C(=O)O)cc3c(=O)c2c1 [Amlexanox]
growth, E. coli TESEC Mtb Alr
Conditions	drug 15.62 µM	drug 31.25 µM	drug 62.5 µM	drug 125 µM	drug 250 µM
arabinose 12 nM	0.4	0.356	0.319	0.272	–
arabinose 24 nM	0.391	0.357	0.317	0.266	–
arabinose 48 nM	0.385	0.352	0.318	0.261	–
arabinose 95 nM	0.382	0.348	0.31	0.265	–
arabinose 191 nM	0.377	0.349	0.319	0.262	–
arabinose 381 nM	0.378	0.346	0.309	0.259	–
arabinose 763 nM	0.382	0.348	0.305	0.261	–
arabinose 1526 nM	0.386	0.352	0.304	0.259	0.264
arabinose 3052 nM	0.375	0.357	0.301	0.257	0.264
arabinose 6104 nM	0.367	0.336	0.29	0.262	0.266
arabinose 12207 nM	0.325	0.306	0.278	0.275	0.281
arabinose 24414 nM	0.282	0.276	0.274	0.285	–
arabinose 48828 nM	0.264	0.266	0.28	0.295	–
arabinose 97656 nM	0.254	0.261	0.28	0.289	–
arabinose 195312 nM	0.268	0.273	0.291	0.284	–
arabinose 390625 nM	0.289	0.298	0.305	0.277	–
arabinose 781250 nM	0.31	0.317	0.304	0.268	–
arabinose 1562500 nM	0.312	0.313	0.297	0.265	–
arabinose 3125000 nM	0.307	0.302	0.292	0.259	–
arabinose 6250000 nM	0.301	0.297	0.286	0.255	–
arabinose 12500000 nM	0.302	0.293	0.284	0.248	–
arabinose 25000000 nM	0.298	0.299	0.282	0.235	–
arabinose 50000000 nM	0.286	0.282	0.259	0.213	–
arabinose 100000000 nM	0.216	0.212	0.216	0.16	–

CN(Cc1cc(Br)cc(Br)c1N)C1CCCCC1 [Bromhexine] (TESEC target enzyme: Mtb Asd)
growth
Conditions	drug 0.3 µM	drug 0.8 µM	drug 1.7 µM	drug 3.9 µM	drug 8.8 µM	drug 19.8 µM	drug 44.4 µM
[1], arabinose 15560 nM	0.18	0.153	–	–	–	–	–
[1], arabinose 28008 nM	0.229	0.178	–	–	–	–	–
[1], arabinose 50414 nM	0.207	0.177	–	–	–	–	–
[1], arabinose 90744 nM	0.215	0.211	–	–	–	–	–
[1], arabinose 163340 nM	0.257	0.239	–	–	–	–	–
[1], arabinose 294012 nM	0.293	0.302	–	–	–	–	–
[1], arabinose 529221 nM	0.32	0.291	–	–	–	–	–
[1], arabinose 952599 nM	0.355	0.368	–	–	–	–	–
[1], arabinose 1714678 nM	0.336	0.387	–	–	–	–	–
[1], arabinose 3086420 nM	0.328	0.361	–	–	–	–	–
[1], arabinose 5555556 nM	0.321	0.333	–	–	–	–	–
[1], arabinose 10000000 nM	0.341	0.34	–	–	–	–	–
[2], arabinose 15560 nM	0.134	0.163	0.156	0.16	0.172	0.162	–
[2], arabinose 28008 nM	0.149	0.159	0.162	0.172	0.164	0.1736	–
[2], arabinose 50414 nM	0.17	0.144	0.17	0.16	0.157	0.172	–
[2], arabinose 90744 nM	0.167	0.21	0.174	0.193	0.178	0.177	–
[2], arabinose 163340 nM	0.157	0.178	0.161	0.187	0.146	0.194	–
[2], arabinose 294012 nM	0.156	0.191	0.204	0.229	0.182	0.198	–
[2], arabinose 529221 nM	0.18	0.202	0.201	0.194	0.186	0.221	–
[2], arabinose 952599 nM	0.238	0.231	0.209	0.214	0.214	0.236	0.203
[2], arabinose 1714678 nM	0.213	0.221	0.208	0.232	0.223	0.253	0.198
[2], arabinose 3086420 nM	0.207	0.23	0.212	0.254	0.204	0.267	0.235
[2], arabinose 5555556 nM	0.189	0.214	0.206	0.198	0.201	0.218	0.232
[2], arabinose 10000000 nM	0.174	0.21	0.163	0.217	0.173	0.21	–

N[C@@H]1CONC1=O [D-cycloserine]
growth, E. coli TESEC Mtb Alr
Conditions	drug 7.81 µM	drug 15.62 µM	drug 31.25 µM	drug 62.5 µM	drug 125 µM
arabinose 12 nM	0.367	0.327	0.0519	0.0505	–
arabinose 24 nM	0.363	0.325	0.0523	0.0512	–
arabinose 48 nM	0.367	0.326	0.0519	0.0518	–
arabinose 95 nM	0.358	0.336	0.0543	0.0501	–
arabinose 191 nM	0.376	0.332	0.121	0.0494	–
arabinose 381 nM	0.373	0.348	0.254	0.05	–
arabinose 763 nM	0.382	0.365	0.305	0.0501	–
arabinose 1526 nM	0.38	0.373	0.349	0.131	0.0482
arabinose 3052 nM	0.367	0.373	0.386	0.29	0.0489
arabinose 6104 nM	0.357	0.356	0.411	0.348	0.0678
arabinose 12207 nM	0.329	0.328	0.375	0.378	0.251
arabinose 24414 nM	0.288	0.298	0.315	0.371	–
arabinose 48828 nM	0.285	0.291	0.29	0.341	–
arabinose 97656 nM	0.29	0.284	0.292	0.306	–
arabinose 195312 nM	0.306	0.3	0.311	0.31	–
arabinose 390625 nM	0.318	0.32	0.322	0.327	–
arabinose 781250 nM	0.307	0.304	0.312	0.32	–
arabinose 1562500 nM	0.282	0.283	0.29	0.294	–
arabinose 3125000 nM	0.269	0.264	0.272	0.276	–
arabinose 6250000 nM	0.253	0.247	0.25	0.252	–
arabinose 12500000 nM	0.237	0.234	0.248	0.239	–
arabinose 25000000 nM	0.225	0.229	0.227	0.231	–
arabinose 50000000 nM	0.195	0.204	0.199	0.204	–
arabinose 100000000 nM	0.154	0.163	0.16	0.16	–

CC/C(=C(/CC)c1ccc(O)cc1)c1ccc(O)cc1 [Diethylstilbestrol] (TESEC target enzyme: Mtb Asd)
growth
Conditions	drug 0.7 µM	drug 1.5 µM	drug 3.5 µM	drug 7.8 µM	drug 17.6 µM	drug 39.5 µM	drug 88.9 µM
[1], arabinose 15560 nM	0.236	0.214	–	–	–	–	–
[1], arabinose 28008 nM	0.223	0.157	–	–	–	–	–
[1], arabinose 50414 nM	0.238	0.191	–	–	–	–	–
[1], arabinose 90744 nM	0.252	0.218	–	–	–	–	–
[1], arabinose 163340 nM	0.254	0.227	–	–	–	–	–
[1], arabinose 294012 nM	0.29	0.222	–	–	–	–	–
[1], arabinose 529221 nM	0.207	0.214	–	–	–	–	–
[1], arabinose 952599 nM	0.2	0.228	–	–	–	–	–
[1], arabinose 1714678 nM	0.2038	0.208	–	–	–	–	–
[1], arabinose 3086420 nM	0.177	0.202	–	–	–	–	–
[1], arabinose 5555556 nM	0.168	0.198	–	–	–	–	–
[1], arabinose 10000000 nM	0.174	0.184	–	–	–	–	–
[2], arabinose 15560 nM	0.278	0.244	0.211	0.134	0.106	0.077	–
[2], arabinose 28008 nM	0.283	0.225	0.192	0.208	0.109	0.0887	–
[2], arabinose 50414 nM	0.271	0.23	0.192	0.149	0.185	0.0973	–
[2], arabinose 90744 nM	0.282	0.238	0.205	0.155	0.0906	0.075	–
[2], arabinose 163340 nM	0.245	0.22	0.207	0.163	0.11	0.108	–
[2], arabinose 294012 nM	0.224	0.222	0.201	0.151	0.0517	0.0476	–
[2], arabinose 529221 nM	0.189	0.16	0.141	0.123	0.0936	0.139	–
[2], arabinose 952599 nM	0.139	0.112	0.103	0.132	0.0957	0.0506	0.108
[2], arabinose 1714678 nM	0.118	0.104	0.106	0.112	0.124	0.147	0.119
[2], arabinose 3086420 nM	0.119	0.108	0.114	0.103	0.0984	0.114	0.111
[2], arabinose 5555556 nM	0.128	0.112	0.119	0.119	0.0951	0.0913	0.0621
[2], arabinose 10000000 nM	0.122	0.118	0.1329	0.118	0.13	0.117	–
